These results are taken from US4537895A, “Isoquinoline derivatives” (EGYT Gyogyszervegyeszeti Gyar, priority 1982, dated 1985).

Several values for one entry are separate records, joined by “and”; a condition that tells them apart may be missing. Identical values can stand only once. Some results are limits rather than exact numbers.

Data set [1] can be described thus: Acute toxicity, s.c., LD50. Details: species or system mice. To be noted: mouse, in vivo, sc, mice, 96 hour observation. The protocol:
(§1) The acute toxicity data are determined in mice. Tests 2-6 are also carried out in mice. The doses are expressed in micromole/kg. The therapeutical index (TI) is the LD/ED quotient.

The subject of data set [2] is catalepsy induced by Haloperidol. In words: Test 2: inhibition of haloperidol-induced catalepsy. Type of data set: in vivo. The note with it: for TI (Test 2), LD/ED quotient: LD50 / ED of Test 2; for ED50: Mus musculus, sc, read-out: ED, s.c. dose which inhibits the catalepsy induced by Haloperidol in 50% of the mice (Test 2). The protocol: (§2) 2. S.c. dose which inhibits the catalepsy induced by a 13 umole/kg dose of Haloperidol, in 50% of the mice.
as §1
(§3) Tests 2, 8, 9 and 10 are suitable for the evaluation of the dopaminerg stimulating effect of the test compounds (potential anti-parkinson agent). Tests 4, 5, 6 and 7 give information about the catecholamine-uptake inhibiting effect (potential antidepressive activity).

A further data set deals with spontaneous motility. In words: Test 3: spontaneous motility. It is filed as in vivo. The note with it: for TI (Test 3), LD/ED quotient: LD50 / ED of Test 3; for minimal effective dose: Mus musculus, ip, read-out: ED, lowest i.p. dose which still decreases the spontaneous motility (Test 3, -). On the procedure:
3. Lowest i.p. dose which still increases or decreases the spontaneous motility of the mice.
as §1
In Test 3 "+=motility increase" and "-=motility decrease."

Data set [3] concerns catalepsy induced by tetrabenazine. As to the kind of experiment: Test 4: inhibition of tetrabenazine-induced catalepsy. Type of data set: in vivo. To be noted: for TI (Test 4), LD/ED quotient: LD50 / ED of Test 4; for ED50: Mus musculus, sc, read-out: ED, s.c. dose which inhibits the catalepsy induced by tetrabenazine in 50% of the mice (Test 4). The protocol: (§4) 4. S.c. dose which inhibits the catalepsy induced by a 110 umole/kg dose of tetrabenazine, in 50% of the mice.
as §1, §3

For data set [4], the system named is ptosis induced by tetrabenazine. As to the kind of experiment: Test 5: inhibition of tetrabenazine-induced ptosis. It is filed as in vivo. To be noted: for TI (Test 5), LD/ED quotient: LD50 / ED of Test 5; for ED50: Mus musculus, sc, read-out: ED, s.c. dose which inhibits the ptosis induced by tetrabenazine in 50% of the mice (Test 5). The protocol: 5. S.c. dose which inhibits the ptosis induced by a dose of 79 umole/kg of tetrabenazine, in 50% of the mice.
as §1, §3

Data set [5] has as its system decrease of the rectal temperature caused by reserpine. As to the kind of experiment: Test 6: reserpine-induced decrease of rectal temperature. The note with it: for minimal effective dose: Mus musculus, sc, read-out: ED, lowest s.c. dose which still hinders the decrease of the rectal temperature caused by reserpine (Test 6); for TI (Test 6), LD/ED quotient: LD50 / ED of Test 6. Type of data set: in vivo. The protocol:
6. The lowest s.c. dose which still hinders the decrease of the rectal temperature caused by the administration of a 1,6 umole/kg dose of reserpine.
as §1, §3

In data set [6] the test system is blood pressure and nictitating membrane. As to the kind of experiment: Test 7: blood pressure and nictitating membrane effect. It is filed as in vivo. The note with it: Felis catus, iv, cats; ">" = inactive in the given dose; read-out: Lowest i.v. dose which still increases the blood pressure and nictitating membrane effect (Test 7). The protocol:
(§5) Tests 7-10 are carried out in cats and rats, the doses are expressed in micromole/kg.
as §3

For another data set, the system named is stereotypy. In words: Test 8: induction of stereotypy. Type of data set: in vivo. To be noted: Rattus norvegicus, sc, rats; ">" = inactive in the given dose; read-out: Lowest s.c. dose which still induces stereotypy (Test 8). The protocol:
8. The lowest s.c. dose which still induces stereotypy, in rats.
as §5, §3

Another data set concerns prolactine level. As to the kind of experiment: Test 10: decrease of prolactine level in ovariectomised rats. The note with it: Rattus norvegicus, 96 h, after 4 days treatment with oestradiol 0.073 umole/kg, read-out: Dose which induces a significant decrease of the prolactine level (Test 10). It is filed as in vivo. On the procedure: 10. The dose which induces a significant decrease of the prolactine level after 4 days treatment with a dose of 0.073 umole/kg of oeastradiol, on three weeks earlier ovariectomised rats.
as §5, §3

Data set [7] relates to catalepsy induced by Haloperidol / tetrabenazine. As to the kind of experiment: Comparison of anti-haloperidol (Test 2) and anti-tetrabenazine (Test 4) activity. Type of data set: in vivo, mice. The note with it: ED Test 2 (haloperidol) : ED Test 4 (tetrabenazine). The protocol: as §2, §4, §1
On comparing the dopaminerg type anti-haloperidol test and the anti-tetrabenazine activity being characteristic of the antidepressive effect the following can be stated:
The quotient of the ED values of Columns 2 and 4 is the highest for Compound I (55:13=4.2). […] The said quotient is high in the case of Nomifensine (1.6), Compound D (1.8), Compound E (2.7) and Compound F (1.7).

`CCCCNC(=O)Nc1cccc2c1CN(C)CC2c1ccc(Cl)cc1` (stereo not shown) [Compound E, 8-n-butyl-carbamoyl-amino-4-p-chloro-phenyl-2-methyl-1,2,3,4-tetrahydro-isoquinoline-maleate]: the LD50 at 96 h in data set [1] was greater than 2050 µmol/kg. Further, in data set [2], the “TI (Test 2), LD/ED quotient” value is listed as greater than 8. The ED50 in [2] worked out at 246 µmol/kg; in data set [3], 90 µmol/kg; in data set [4] it was 31 µmol/kg. Moreover, the “TI (Test 3), LD/ED quotient” value with spontaneous motility is given as greater than 66. Also, the minimal effective dose in the data set on spontaneous motility was 31 µmol/kg; in data set [5], greater than 205 µmol/kg; in [6], 6.1 µmol/kg; in the data set with stereotypy, 275 µmol/kg; in the data set on prolactine level it was 143 µmol/kg. Besides, the “TI (Test 4), LD/ED quotient” value in data set [3] was greater than 23. Also, in data set [4], the “TI (Test 5), LD/ED quotient” value is on record as greater than 66. For the same compound, the “Quotient of the ED values of Columns 2 and 4” value (from here on “Quotient … of Columns 2 and 4”) in data set [7] is given as 2,7.

On to `CCCCNC(=O)Nc1cccc2c1CN(C)CC2c1ccc(C)cc1` (stereo not shown) [Compound F, 2-methyl-8-n-butyl-carbamoyl-amino-4-p-tolyl-1,2,3,4-tetrahydro-isoquinoline-maleate], for which the LD50 at 96 h in [1] was greater than 2570 µmol/kg. Also, the “TI (Test 2), LD/ED quotient” value in [2] was greater than 12. In addition, the values for the ED50 in [2], in data set [3] and in data set [4] were greater than 214 µmol/kg, 128 µmol/kg and 32 µmol/kg, respectively. The “TI (Test 3), LD/ED quotient” value in the data set on spontaneous motility was greater than 60. Further, the minimal effective dose in the data set on spontaneous motility was 43 µmol/kg; in data set [5], 86 µmol/kg; in data set [6] it was greater than 11 µmol/kg; with stereotypy, 178 µmol/kg; in the data set on prolactine level, 107 µmol/kg. Moreover, the “TI (Test 4), LD/ED quotient” value in data set [3] is recorded as greater than 20. The “TI (Test 5), LD/ED quotient” value in [4] is recorded as greater than 80. The “TI (Test 6), LD/ED quotient” value in data set [5] is greater than 30. For the same compound, the “Quotient … of Columns 2 and 4” value in [7] is > 1,7 and 1.7.

In the case of `CC(C)NCCC(=O)Nc1cccc2c1CN(C)CC2c1ccccc1` (stereo not shown) [Compound B, 4-phenyl-8-[3'-isopropylamino-propionyl-amino]-2-methyl-1,2,3,4-tetrahydroisoquinoline-maleate], the LD50 at 96 h in [1] is 1920 µmol/kg. Also, in [2], the “TI (Test 2), LD/ED quotient” value is reported as 5. Besides, the ED50 is 428 µmol/kg in data set [2], 321 µmol/kg in data set [3] and 267 µmol/kg in data set [4]. The “TI (Test 3), LD/ED quotient” value in the data set with spontaneous motility is 6. Further, the minimal effective dose in the data set on spontaneous motility was 342 µmol/kg; in data set [5] it was 428 µmol/kg; in data set [6], 4.3 µmol/kg; with stereotypy, greater than 178 µmol/kg; with prolactine level it was 96 µmol/kg. Further, in data set [3], the “TI (Test 4), LD/ED quotient” value turned out to be 6. Moreover, the “TI (Test 5), LD/ED quotient” value in [4] is listed as 7. Moreover, in [5], the “TI (Test 6), LD/ED quotient” value turned out to be 5. The “Quotient … of Columns 2 and 4” value in data set [7] is reported as 1,3.

`CN1Cc2c(NC(=O)CN3CCCC3)cccc2C(c2ccccc2)C1` (stereo not shown) [Compound A, 4-phenyl-2-methyl-8-pyrrolidino-acetylamino-1,2,3,4-tetrahydro-isoquinoline-dimaleate] displayed an LD50 at 96 h in data set [1] of 653 µmol/kg. In addition, in [2], the “TI (Test 2), LD/ED quotient” value is 8 and the ED50 was determined as 86 µmol/kg. Moreover, in the data set on spontaneous motility, the “TI (Test 3), LD/ED quotient” value was determined as 3 and the minimal effective dose was determined as 206 µmol/kg. Moreover, in data set [3], the “TI (Test 4), LD/ED quotient” value is reported as 11 and the ED50 worked out at 62 µmol/kg. In addition, in data set [4], the “TI (Test 5), LD/ED quotient” value turned out to be 15 and the ED50 is 43 µmol/kg. In data set [5], the “TI (Test 6), LD/ED quotient” value amounted to 8 and the minimal effective dose was found to be 86 µmol/kg. Besides, in data set [6], the minimal effective dose came to 5.2 µmol/kg. The minimal effective dose in the data set on stereotypy is 89 µmol/kg. The “Quotient … of Columns 2 and 4” value in data set [7] is on record as 1,4.
